Data taken from patent publication US20110178053A1, “AZACARBOLINE DERIVATIVES, PREPARATION METHOD THEREOF AND THERAPEUTIC USE OF SAME” (SANOFI-AVENTIS, priority 2008, published 2011).

Experiments:
Assay type in all cases: biochemical
[1] = target: T1, Pim-2 (Homo sapiens, UniProt Q9P1W9); assay: TR-FRET assay, Pim-2 kinase (phosphorylation of Bad Ser112); settings: TR-FRET; ATP 40 μM; read-out: IC50 Pim2
T1 construct: His6-labelled recombinant full-length human Pim-1, Pim-2 or Pim-3 protein; His6; made in house
T1 sequence (Q9P1W9 whole entry): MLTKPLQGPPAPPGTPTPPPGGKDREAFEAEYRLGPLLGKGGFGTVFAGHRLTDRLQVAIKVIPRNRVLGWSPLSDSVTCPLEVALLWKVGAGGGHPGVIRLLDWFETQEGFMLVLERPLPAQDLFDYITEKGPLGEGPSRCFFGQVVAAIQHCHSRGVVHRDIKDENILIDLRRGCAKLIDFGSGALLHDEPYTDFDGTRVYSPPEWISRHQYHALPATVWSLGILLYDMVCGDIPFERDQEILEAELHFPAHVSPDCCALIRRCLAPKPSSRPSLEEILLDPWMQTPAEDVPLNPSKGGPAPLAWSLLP
Method: (§1) In order to determine the inhibition of activation of Pim kinases, the compounds of the invention are tested in accordance with a routinely used in vitro TR-FRET assay (Time-Resolved Fluorescence Resonance Energy Transfer). […] For the assay, the following reagents are used:
(§2) Pim kinase—His6-labelled recombinant full-length human Pim-1, Pim-2 or Pim-3 protein (prepared according to J. Mol. Biol. (2005) 348, 183-193); Bad—His6-labelled recombinant full-length human Bad protein (prepared according to J. Mol. Biol. (2005) 348, 183-193); α-His6-APC—murine monoclonal antibody conjugated to allophycocyanin SureLight™ directed against the His6 label (Perkin-Elmer, No. AD0059H, Waltham, Mass., United States); • β-P˜Bad-Eu—murine monoclonal antibody (Cell Signaling Technology #9296B, Danvers, Mass., United States) directed against phosphoBad (Ser112) (7E11) custom-labelled by Perkin-Elmer with the reagent LANCE™ Eu-W1024.
(§3) The assay is based on Perkin-Elmer's LANCE™ technology: the Eu-labelled antibody binds to phospho-Ser112 and generates a TR-FRET signal by interaction with the APC-labelled antibody directed against His6, bound to the His6 label of Bad. The TR-FRET signal is detected using a SpectraMax M5 plate reader (Molecular Devices) with the following settings: λex=340 nm, λem1=615 nm, λem2=665 nm. The ratio of the fluorescence signal at 665 nm to the fluorescence signal at 615 nm is used as the signal reading for the IC50 (calculation is based on the 4-parameter logistic model). The assay is performed in a 384-well format; the liquid manipulations are performed using a Beckman 3000 liquid manipulations station. The test compounds are tested at 10 concentration points in duplicate; the highest compound concentration is typically equal to 30 μM. The ATP concentration is equal to 40 μM, which is equivalent to the apparent KM value.

[2] = target: T2, Pim-3 (Homo sapiens, UniProt Q86V86); assay: TR-FRET assay, Pim-3 kinase (phosphorylation of Bad Ser112); settings: TR-FRET; ATP 40 μM; read-out: IC50 Pim3
T2 construct: His6-labelled recombinant full-length human Pim-1, Pim-2 or Pim-3 protein; His6; made in house
Method: as §1, §2, §3

[3] = target: T3, Pim-1 (Homo sapiens, UniProt P11309); assay: TR-FRET assay, Pim-1 kinase (phosphorylation of Bad Ser112); settings: TR-FRET; ATP 40 μM; read-out: IC50 Pim1
T3 construct: His6-labelled recombinant full-length human Pim-1, Pim-2 or Pim-3 protein; His6; made in house
T3 sequence (P11309 whole entry): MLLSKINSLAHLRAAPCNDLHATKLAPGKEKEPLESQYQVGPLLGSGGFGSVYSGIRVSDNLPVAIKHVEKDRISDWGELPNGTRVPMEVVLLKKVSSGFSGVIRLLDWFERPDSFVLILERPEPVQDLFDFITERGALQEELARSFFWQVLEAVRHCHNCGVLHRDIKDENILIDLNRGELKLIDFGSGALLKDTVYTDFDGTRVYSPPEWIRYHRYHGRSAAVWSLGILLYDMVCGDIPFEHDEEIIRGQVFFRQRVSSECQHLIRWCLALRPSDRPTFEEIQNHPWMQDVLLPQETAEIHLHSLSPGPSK
Method: as §1, §2, §3

Row | SMILES | IC50 [1] [µM] | IC50 [2] [µM] | IC50 [3] [µM]
1 | CN(C)CCCOc1ccc(-c2cnc3[nH]c4cnc(-c5cccnc5)cc4c3c2)cn1 [Example 145, N,N-dimethyl-3-({5-[6-(pyrid-3-yl)-9H-pyrrolo[2,3-b:5,4-c′]dipyrid-3-yl]pyrid-2-yl}-oxy)propan-1-amine] | 0.1 to 1 | 0.001 to 0.1 | 0.001 to 0.1
2 | CC(C)(O)C#Cc1c(F)cnc2[nH]c3cnc(-c4cccnc4)cc3c12 [Example 91, 4-[3-fluoro-6-(pyrid-3-yl)-9H-pyrrolo[2,3-b:5,4-c′]dipyrid-4-yl]-2-methylbut-3-yn-2-ol] | 1 to 5 | 0.001 to 0.1 | 0.001 to 0.1
3 | c1cncc(-c2cc3c(cn2)[nH]c2ncc(-c4cccc(N5CCN(C6CC6)CC5)c4)cc23)c1 [Example 142, 3-[3-(4-cyclopropylpiperazin-1-yl)phenyl]-6-(pyrid-3-yl)-9H-pyrrolo[2,3-b:5,4-c′]-dipyridine] | > 5 | 0.001 to 0.1 | 0.001 to 0.1
4 | Ic1cnc2[nH]c3cnc(-c4cccnc4)cc3c2c1 [Example 114, 3-iodo-6-(pyrid-3-yl)-9H-pyrrolo[2,3-b:5,4-c′]dipyridine] | 1 to 5 | 0.1 to 1 | 0.1 to 1
5 | CC(C)C(=O)Nc1ccc(-c2c(F)cnc3[nH]c4cnc(-c5cccnc5)cc4c23)cc1 [Example 68, N-{4-[3-fluoro-6-(pyrid-3-yl)-9H-pyrrolo[2,3-b:5,4-c']-dipyrid-4-yl]phenyl}-2-methylpropanamide] | 1 to 5 | 0.1 to 1 | 0.001 to 0.1
6 | Nc1ccc(-c2c(F)cnc3[nH]c4cnc(-c5cccnc5)cc4c23)cn1 [Example 74, 5-[3-fluoro-6-(pyrid-3-yl)-9H-pyrrolo[2,3-b,-c′]dipyrid-4-yl]pyrid-2-amine] | 1 to 5 | 0.1 to 1 | 0.1 to 1
7 | Fc1cnc2[nH]c3cnc(-c4cccnc4)cc3c2c1-c1cn[nH]c1 [Example 71, 3-fluoro-4-(1H-pyrazol-4-yl)-6-(pyrid-3-yl)-9H-pyrrolo[2,3-b:5,4-c′]-dipyridine] | 0.1 to 1 | 0.1 to 1 | 0.001 to 0.1
8 | c1cncc(-c2cc3c(cn2)[nH]c2ncc(-c4cccc(N5CCNCC5)c4)cc23)c1 [Example 132, 3-[3-(piperazin-1-yl)phenyl]-6-(pyrid-3-yl)-9H-pyrrolo[2,3-b:5,4-c′]dipyridine] | 0.1 to 1 | 0.001 to 0.1 | 0.001 to 0.1
9 | Fc1cnc2[nH]c3cnc(-c4cccnc4)cc3c2c1/C=C/c1ccccc1 [Example 24, 3-fluoro-4-[(E)-2-phenylethenyl]-6-(pyrid-3-yl)-9H-pyrrolo[2,3-b:5,4-c′]dipyridine] | > 5 | 1 to 5 | 0.1 to 1
10 | CN(C)CCCOc1ccc(-c2cnc3[nH]c4cnc(-c5cccnc5)cc4c3c2)cc1 [Example 146, N,N-dimethyl-3-{4-[6-(pyrid-3-yl)-9H-pyrrolo[2,3-b:5,4-c′]dipyrid-3-yl]phenoxy}-propan-1-amine] | 0.1 to 1 | 0.001 to 0.1 | 0.001 to 0.1
11 | NCCCOc1ccc(-c2cnc3[nH]c4cnc(-c5cccnc5)cc4c3c2)cc1 [Example 155, 3-{4-[6-(pyrid-3-yl)-9H-pyrrolo[2,3-b:5,4-c′]dipyrid-3-yl]-phenoxy}propan-1-amine] | 0.1 to 1 | 0.001 to 0.1 | 0.001 to 0.1
12 | CCOc1ncccc1-c1c(F)cnc2[nH]c3cnc(-c4cccnc4)cc3c12 [Example 64, 4-(2-ethoxypyrid-3-yl)-3-fluoro-6-(pyrid-3-yl)-9H-pyrrolo[2,3-b:5,4-c′]dipyridine] | > 5 | 1 to 5 | 0.1 to 1
13 | Clc1cnc2[nH]c3cnc(-c4cccnc4)cc3c2c1 [Example 13, 3-chloro-6-(pyrid-3-yl)-9H-pyrrolo[2,3-b:5,4-c′]dipyridine] | 1 to 5 | 0.1 to 1 | 0.1 to 1
14 | COc1ccc(-c2c(F)cnc3[nH]c4cnc(-c5cccnc5)cc4c23)cn1 [Example 52, 3-fluoro-4-(6-methoxypyrid-3-yl)-6-(pyrid-3-yl)-9H-pyrrolo[2,3-b:5,4-c′]-dipyridine] | > 5 | 0.1 to 1 | 0.1 to 1
15 | Fc1cnc2[nH]c3cnc(-c4cccnc4)cc3c2c1N1CCCCC1 [Example 76, 3-fluoro-4-(piperid-1-yl)-6-(pyrid-3-yl)-9H-pyrrolo[2,3-b:5,4-c′]dipyridine] | 0.1 to 1 | 0.001 to 0.1 | 0.001 to 0.1
16 | CC(C)(N)C#Cc1c(F)cnc2[nH]c3cnc(-c4cccnc4)cc3c12 [Example 90, 4-[3-fluoro-6-(pyrid-3-yl)-9H-pyrrolo[2,3-b:5,4-c′]dipyrid-4-yl]-2-methylbut-3-yn-2-amine] | > 5 | 0.1 to 1 | 0.1 to 1
17 | CCN(CC)CCOc1cccc(-c2cnc3[nH]c4cnc(-c5cccnc5)cc4c3c2)c1 [Example 153, N,N-diethyl-2-{3-[6-(pyrid-3-yl)-9H-pyrrolo[2,3-b:5,4-c′]dipyrid-3-yl]phenoxy}ethan-amine] | 1 to 5 | 0.001 to 0.1 | 0.001 to 0.1
18 | Fc1cncc(-c2cc3c(cn2)[nH]c2ncccc23)c1 [Example 42, 6-(5-fluoropyrid-3-yl)-9H-pyrrolo[2,3-b:5,4-c′]dipyridine] | – | – | 1 to 5
19 | Cn1cc(-c2c(F)cnc3[nH]c4cnc(-c5cccnc5)cc4c23)cn1 [Example 60, 3-fluoro-4-(1-methyl-1H-pyrazol-4-yl)-6-(pyrid-3-yl)-9H-pyrrolo[2,3-b:5,4-c′]-dipyridine] | 1 to 5 | 0.1 to 1 | 0.001 to 0.1
20 | CC(C)N1CCN(c2c(F)cnc3[nH]c4cnc(-c5cccnc5)cc4c23)CC1 [Example 75, 3-fluoro-4-[4-(propan-2-yl)-piperazin-1-yl]-6-(pyrid-3-yl)-9H-pyrrolo[2,3-b:5,4-c′]dipyridine] | 1 to 5 | 0.1 to 1 | 0.001 to 0.1
21 | CN1CCC(N2CCN(c3c(F)cnc4[nH]c5cnc(-c6cccnc6)cc5c34)CC2)CC1 [Example 77, 3-fluoro-4-[4-(1-methylpiperid-4-yl)piperazin-1-yl]-6-(pyrid-3-yl)-9H-pyrrolo-[2,3-b:5,4-c′]-dipyridine] | > 5 | 0.1 to 1 | 0.1 to 1
22 | CN(CCCC(=O)N1CCCC1)c1cnc2[nH]c3cnc(-c4cccnc4)cc3c2c1 [Example 12, 4-{methyl[6-(pyrid-3-yl)-9H-pyrrolo-[2,3-b:5,4-c′]dipy-rid-3-yl]amino}-1-(pyrrolidin-1-yl)-butan-1-one] | – | – | 0.1 to 1
23 | CCN(CC)c1cnc2[nH]c3cnc(-c4cccnc4)cc3c2c1 [Example 11, N,N-diethyl-6-(pyrid-3-yl)-9H-pyrrolo[2,3-b:5,4-c′]dipyrid-3-amine] | – | – | 1 to 5
24 | CCc1cc(N(CC)CC)ncc1-c1cnc2[nH]c3cnc(-c4cccnc4)cc3c2c1 [Example 133, N,N-4-triethyl-5-[6-(pyrid-3-yl)-9H-pyrrolo[2,3-b:5,4-c′]dipyrid-3-yl]pyrid-2-amine] | – | 0.1 to 1 | 0.001 to 0.1
25 | Fc1cnc2[nH]c3cnc(-c4cccnc4)cc3c2c1I [Example 20, 3-fluoro-4-iodo-6-(pyrid-3-yl)-9H-pyrrolo[2,3-b:5,4-c′]dipyridine] | – | – | 0.001 to 0.1
26 | CC(C)(C)OC(=O)N1CCN(c2ccc(-c3cnc4[nH]c5cnc(-c6cccnc6)cc5c4c3)cc2)CC1 [Example 129, 2-methyl-2-propyl 4-{4-[6-(pyrid-3-yl)-9H-pyrrolo[2,3-b:5,4-c′]dipyrid-3-yl]phenyl}-piperazine-1-carboxylate] | – | 0.1 to 1 | 0.1 to 1
27 | CC(C)(C)OC(=O)N1CCN(c2cccc(-c3cnc4[nH]c5cnc(-c6cccnc6)cc5c4c3)c2)CC1 [Example 131, 2-methyl-2-propyl 4-{3-[6-(pyrid-3-yl)-9H-pyrrolo[2,3-b:5,4-c′]dipyrid-3-yl]phenyl}piperazine-1-carboxylate] | – | 0.1 to 1 | 0.1 to 1
28 | CC(C)(C)OC(=O)N1CCN(c2cc(-c3cnc4[nH]c5cnc(-c6cccnc6)cc5c4c3)ccn2)CC1 [Example 143, 2-methyl-2-propyl 4-{4-[6-(pyrid-3-yl)-9H-pyrrolo[2,3-b:5,4-c′]dipyrid-3-yl]pyrid-2-yl}piperazine-1-carboxylate] | – | 0.1 to 1 | 0.1 to 1
29 | O=C(O)c1cnc2[nH]c3cnc(-c4cccnc4)cc3c2c1 [Example 19, 6-(pyrid-3-yl)-9H-pyrrolo[2,3-b:5,4-c′]dipyridine-3-carboxylic acid] | – | – | 0.1 to 1
30 | COC(=O)c1cnc2[nH]c3cnc(-c4cccnc4)cc3c2c1 [Example 3, methyl 6-(pyrid-3-yl)-9H-pyrrolo[2,3-b:5,4-c′]dipyridine-3-carboxylate] | – | – | 0.1 to 1
